One assay has as its system Aβ42. Description: Aβ42 content in culture supernatant of HEK293APP/sw overexpression cells (ELISA, adjusted to total protein). The following applies: secreted by APP/293 (HEK293APP/sw) cells; 400 μM, treated for 24 h; blank control 11.08. It counts as cell-based. The protocol: (§1) (1) BCA protein concentration assay kit is purchased from Beyotime, Aβ40 and AB42 test kits are purchased from Wako Company. Except the fetal bovine serum (FBS) is purchased from Shanghai Pulong Biotechnology Research and Development Co. Ltd., the other related reagents are purchased from Gibico Company.
(§2) (2) HEK293APP/sw overexpression cell culture: cells are cultured in 48 microwell plate with DMEM culture solution (including 10% FBS, 100 μg/mL G418 (Geneticin) and penicillin and streptomycin), and a 4 mM stock in DMEM is diluted with DMEM to 400 μM and added to cell culture medium by 500 μL/well at 70% cell density and treated for 24 h.
(§3) (3) After the supernatant of culture solution is added to the BCA reagent at room temperature for 30 minutes, the absorption value of each well is measured at the OD 570 nm by the microplate reader and the total protein concentration is calculated according to the protein standard curve. Meanwhile, the concentration of Aβ40 and Aβ42 in the supernatant of culture solution is measured. Briefly, the supernatant is added to the 96 microwell plate coated by primary antibodies and incubated at 4° C. for overnight. Then the solution in the 96 microwell plate is removed and washed, and HRP (horseradish oxide enzyme) marked antibody is added to the solution and incubated at 4° C. for 2 hours. The antibody is removed and the plate is washed. After TMB substrate is added to each well at room temperature for 30 minutes, and the stop buffer is added to each well. The absorption value of each well is measured at the OD 450 nm by the microplate reader and the concentrations of Aβ40 and Aβ42 are calculated according to the standard curves of Aβ40 and Aβ42 respectively, and the final concentration is obtained by adjusting the concentrations of Aβ40 and Aβ42 according to the total protein concentration.

The subject of another assay is Aβ40. Nature of the assay: Aβ40 content in culture supernatant of HEK293APP/sw overexpression cells (ELISA, adjusted to total protein). It counts as cell-based. The following applies: secreted by APP/293 (HEK293APP/sw) cells; 400 μM, treated for 24 h; blank control 127.81. The protocol: as §1, §2, §3

Molecule `C/C(=C(\CCOP(=O)(O)O)SC(=O)c1ccccc1[N+](=O)[O-])N(C=O)Cc1cnc(C)nc1N` [Example 22, (Z)-S-(2-(N-((4-amino-2-methylpyrimidin-5-yl)methyl)formamido)-5-(phosphonooxy)pent-2-en-3-yl)2-nitrobenzothioate] displayed an Aβ42 content in the assay on Aβ42 of 11.31 pmol/L. Also, the Aβ40 content in the assay with Aβ40 was determined as 127.81 pmol/L.
`C/C(=C(\CCOP(=O)(O)O)SC(=O)c1ccccc1C)N(C=O)Cc1cnc(C)nc1N` [Example 10, (Z)-S-(2-(N-((4-amino-2-methylpyrimidin-5-yl)methyl)formamido)-5-(phosphonooxy)pent-2-en-3-yl)2-methylbenzothioate] returned an Aβ42 content in the assay with Aβ42 of 9.78 pmol/L. Further, in the assay on Aβ40, the Aβ40 content was 112.32 pmol/L.
The corresponding values for `C/C(=C(\CCOP(=O)(O)O)SC(=O)c1cccc(Cl)c1)N(C=O)Cc1cnc(C)nc1N` [Example 13, (Z)-S-(2-(N-((4-amino-2-methylpyrimidin-5-yl)methyl)formamido)-5-(phosphonooxy)pent-2-en-3-yl)3-chlorobenzothioate] are 6.37 pmol/L and 69.35 pmol/L.
Consider `C/C(=C(\CCOP(=O)(O)O)SC(=O)c1cccc(F)c1)N(C=O)Cc1cnc(C)nc1N` [Example 8, (Z)-S-(2-(N-((4-amino-2-methylpyrimidin-5-yl)methyl)formamido)-5-(phosphonooxy)pent-2-en-3-yl)3-fluorobenzothioate], for which, in the assay with Aβ42, the Aβ42 content was 8.35 pmol/L. Further, the Aβ40 content in the assay on Aβ40 is given as 87.33 pmol/L.
Regarding “(Z)-S-(2-(N-((4-amino-2-methylpyrimidin-5-yl)methyl)formamido)-5-(phosphonooxy)pent-2-en-3-yl)2-bromobenzothioate [Example 18]”, the Aβ42 content in the assay with Aβ42 was 2.60 pmol/L. The molecule also registered an Aβ40 content in the assay on Aβ40 of 21.19 pmol/L.
